Laboratory results as given in publication PMC11850616, “Nanomolar inhibitor of the galectin-8 N-terminal domain binds via a non-canonical cation-π interaction” (Communications Chemistry, 2025).

Tests used:
Gal-8C = target: T1, Gal-8C (Homo sapiens, UniProt O00214); assay: competitive fluorescence polarisation assay, Gal-8C; assay type: binding; conditions: for Kd: competitive FP, mean ± SEM of n = 4 to 8; for Gal-8C selectivity ratio Kd (Gal-8C)/Kd (Gal-8N): ratio of FP Kd values
T1 construct: than to the C-terminal domain (Gal-8C)
T1 sequence (O00214 187-317 limits assumed): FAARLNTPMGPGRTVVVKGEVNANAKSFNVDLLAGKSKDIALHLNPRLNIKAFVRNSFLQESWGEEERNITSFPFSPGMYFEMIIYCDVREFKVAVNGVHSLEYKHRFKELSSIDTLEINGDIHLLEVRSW

Gal-8N = target: T2, Gal-8N (Homo sapiens, UniProt O00214); assay: ligand efficiency (LE) and ligand-lipophilicity efficiency (LLE) calculations; conditions: for LLE: from Gal-8N Kd and clogP; for LE: from Gal-8N Kd and number of non-hydrogen atoms
T2 construct: consisting of residues 4-158 was produced by Lund Protein Production Platform; made in house; host or cells: E. coli TUNER(DE3)
T2 sequence (O00214 4-158): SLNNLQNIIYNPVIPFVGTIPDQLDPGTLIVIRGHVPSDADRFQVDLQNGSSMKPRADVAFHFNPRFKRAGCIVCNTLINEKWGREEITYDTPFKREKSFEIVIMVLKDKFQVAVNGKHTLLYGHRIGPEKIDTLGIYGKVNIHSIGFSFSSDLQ

Gal-1 = target: T3, Gal-1 (Homo sapiens, UniProt P09382); assay: competitive fluorescence polarisation assay, Gal-1; assay type: binding; conditions: for Kd: competitive FP, mean ± SEM of n = 4 to 8, 20 °C; for Gal-1 selectivity ratio Kd (Gal-1)/Kd (Gal-8N): ratio of FP Kd values
T3 construct: made in house
Method: (§1) Human galectins-1, -3, and -8N were expressed and purified as described previously[8],[23],[24]. Competitive fluorescence polarization assays were performed with a PHERAstar FS plate reader with software PHERAstar Mars version 2.10 R3 (BMG, Offenburg, Germany) and Tecan Spark multimode microplate reader (Tecan Trading AG, Switzerland), where a fluorescence anisotropy of fluorescent-tagged probes was measured by excitation at 485 nm and emission at 520 nm. Experiments were performed at 20 °C with Gal-1 at 0.5 µM, Gal-3 at 0.2 µM, and Gal-8N at 0.4 µM. Fluorescent probes used for experiments were 3,3′-dideoxy-3-[4-(fluorescein-5-yl-carbonylaminomethyl)-1H-1,2,3-triazol-1-yl]-3′-(3,5-di-methoxybenzamido)-1,1′-sulfanediyl-di-β-D-galactopyranoside at 0.02 µM for Gal-1 and -3 and 2-(fluorescein-5-yl-carbonylamino)ethyl β-D-galactopyranosyl(1-4)-2-acetamido-2-deoxy-β-D-glucopyranosyl(1–3)-β-D-galactopyranosyl(1–4)-β-D-glucopyranoside at 0.1 µM for Gal-8N in each well. Compounds were first dissolved in pure DMSO at 20 mM concentration and later diluted in 5% DMSO in PBS solution to 5-7 different concentrations. Each concentration was tested in duplicate. The highest inhibitor concentrations tested were 1.5 mM. The average values of Kd and SEM (standard error mean) were calculated from 4 to 8 duplicate measurements, showing 10–90% inhibition.

Gal-3 = target: T4, Gal-3 (Homo sapiens, UniProt P17931); assay: competitive fluorescence polarisation assay, Gal-3; assay type: binding; conditions: for Kd: competitive FP, mean ± SEM of n = 4 to 8, 20 °C, read-out: Kd Gal-3; for Gal-3 selectivity ratio Kd (Gal-3)/Kd (Gal-8N): ratio of FP Kd values
T4 construct: made in house
Method: as §1

[1] = target: T5, Gal-8N (galectin-8 N-terminal domain) (Homo sapiens, UniProt O00214); assay: competitive fluorescence polarisation assay, Gal-8N; assay type: binding; conditions: competitive FP, mean ± SEM of n = 4 to 8, 20 °C; read-out: Kd Gal-8N
T5 construct: made in house
T5 sequence (O00214 19-152 limits assumed): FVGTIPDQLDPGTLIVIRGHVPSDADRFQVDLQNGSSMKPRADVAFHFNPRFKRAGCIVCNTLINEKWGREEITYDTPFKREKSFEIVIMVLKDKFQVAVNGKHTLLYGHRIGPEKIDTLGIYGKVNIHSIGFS
Method: as §1

T4 sequence (P17931 whole entry): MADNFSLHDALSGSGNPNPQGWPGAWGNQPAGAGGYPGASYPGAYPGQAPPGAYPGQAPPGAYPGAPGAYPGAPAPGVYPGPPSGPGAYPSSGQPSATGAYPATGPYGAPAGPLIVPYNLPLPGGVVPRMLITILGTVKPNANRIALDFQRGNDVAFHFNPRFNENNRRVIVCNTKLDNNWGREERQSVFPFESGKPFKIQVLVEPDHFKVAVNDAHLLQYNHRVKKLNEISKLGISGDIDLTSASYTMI
T3 sequence (P09382 whole entry): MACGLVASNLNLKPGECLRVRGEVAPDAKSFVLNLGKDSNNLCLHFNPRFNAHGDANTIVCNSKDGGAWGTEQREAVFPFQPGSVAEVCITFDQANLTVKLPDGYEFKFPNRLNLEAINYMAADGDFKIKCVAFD

Compound	Kd (Gal-8C)	Gal-8C selectivity ratio Kd (Gal-8C)/Kd (Gal-8N) (Gal-8C)	LLE (Gal-8N)	LE (Gal-8N)	Kd (Gal-1)	Gal-1 selectivity ratio Kd (Gal-1)/Kd (Gal-8N) (Gal-1)	Kd (Gal-3)	Gal-3 selectivity ratio Kd (Gal-3)/Kd (Gal-8N) (Gal-3)	Kd [1]
Cn1c(CO[C@H]2[C@@H](O)[C@@H](CO)O[C@H](Sc3ccc(Cl)c(Cl)c3)[C@@H]2OCc2ccccc2)nc2ccc(C(=O)O)cc21 [Compound 8a]	320 ± 12 µM	213	0.382	0.195 (kcal/mol)/heavy atom	14 ± 0.82 µM	9.4	3.7 ± 0.5 µM	2.5	1.5 ± 0.13 µM
Cc1cccc(CO[C@@H]2[C@@H](OCc3nc4ccc(C(=O)O)cc4n3C)[C@@H](O)[C@@H](CO)O[C@@H]2Sc2ccc(Cl)c(Cl)c2)c1 [Compound 8b]	303 ± 19 µM	144	-0.257	0.185 (kcal/mol)/heavy atom	19 ± 0.67 µM	9	8.2 ± 0.7 µM	3.9	2.1 ± 0.1 µM
Cc1ccc(CO[C@@H]2[C@@H](OCc3nc4ccc(C(=O)O)cc4n3C)[C@@H](O)[C@@H](CO)O[C@@H]2Sc2ccc(Cl)c(Cl)c2)cc1 [Compound 8c]	256 ± 24 µM	122	-0.259	0.185 (kcal/mol)/heavy atom	16 ± 0.75 µM	7.6	5.9 ± 0.6 µM	2.8	2.1 ± 0.15 µM
Cn1c(CO[C@H]2[C@@H](O)[C@@H](CO)O[C@H](Sc3ccc(Cl)c(Cl)c3)[C@@H]2OCc2ccc(F)cc2)nc2ccc(C(=O)O)cc21 [Compound 8d]	301 ± 28 µM	188	0.203	0.189 (kcal/mol)/heavy atom	14 ± 1.2 µM	8.8	4.2 ± 0.6 µM	2.6	1.6 ± 0.06 µM
Cn1c(CO[C@H]2[C@@H](O)[C@@H](CO)O[C@H](Sc3ccc(Cl)c(Cl)c3)[C@@H]2OCc2ccc(Cl)c(Cl)c2)nc2ccc(C(=O)O)cc21 [Compound 8e]	577 ± 4 µM	134	-1.38	0.171 (kcal/mol)/heavy atom	20 ± 0.84 µM	4.7	12 ± 3 µM	2.8	4.3 ± 0.4 µM
Cn1c(CO[C@H]2[C@@H](O)[C@@H](CO)O[C@H](Sc3ccc(Cl)c(Cl)c3)[C@@H]2OCc2cccc(Cl)c2)nc2ccc(C(=O)O)cc21 [Compound 8f]	225 ± 37 µM	125	-0.422	0.187 (kcal/mol)/heavy atom	15 ± 1.3 µM	8.3	5.8 ± 0.7 µM	3.2	1.8 ± 0.18 µM

Other lines, results leading:

Kd (Gal-8C)	Gal-8C selectivity ratio Kd (Gal-8C)/Kd (Gal-8N) (Gal-8C)	LLE (Gal-8N)	LE (Gal-8N)	Kd (Gal-1)	Gal-1 selectivity ratio Kd (Gal-1)/Kd (Gal-8N) (Gal-1)	Kd (Gal-3)	Gal-3 selectivity ratio Kd (Gal-3)/Kd (Gal-8N) (Gal-3)	Kd [1]	Compound
355 ± 57 µM	101	0.182	0.149 (kcal/mol)/heavy atom	69 ± 9.5 µM	19.7	4.7 ± 1 µM	1.3	3.5 ± 0.37 µM	COC(=O)c1ccccc1-n1cc(CO[C@@H]2[C@@H](OCc3nc4ccc(C(=O)O)cc4n3C)[C@@H](O)[C@@H](CO)O[C@@H]2Sc2ccc(Cl)c(Cl)c2)nn1 [Compound 15a]
568 ± 23 µM	126	0.0722	0.146 (kcal/mol)/heavy atom	104 ± 7.4 µM	23	22 ± 5.5 µM	4.9	4.5 ± 0.24 µM	COC(=O)c1cccc(-n2cc(CO[C@@H]3[C@@H](OCc4nc5ccc(C(=O)O)cc5n4C)[C@@H](O)[C@@H](CO)O[C@@H]3Sc3ccc(Cl)c(Cl)c3)nn2)c1 [Compound 15b]
